# Measured values reported in patent US20160084855A1, “Compositions and Methods for Modulation and Detection of Immune and Inflammatory Responses” (UNIVERSITY OF CONNECTICUT, priority 2013, published 2016).
# Entries after “also recorded” stand apart in the source; their conditions may differ.
# How the values were obtained:
# human TLR2 = target: T1, human TLR2 (Homo sapiens, UniProt O60603); assay: HEK293 cells transfected with human TLR2, CD14 (MD-2) and SEAP reporter; format: cell-based; settings: for HEK cell activation versus DMSO vehicle (stimulated/nonstimulated ratio): 24 h, MMP 0.2 μg/ml, LTA 2 μg/ml, lipid 654 and lipid 430 0.69 μg/ml, P<0.05; for Activation of human TLR2 in HEK cells: HPLC fractions of P. gingivalis total lipids; for Effect of pretreatment with anti-human TLR2 antibody on HEK-TLR2 cell activation: antibody 10 μg/mL 1 hour, MMP 0.1 μg/ml, LTA 1 μg/ml, lipid 430 and lipid 654 0.69 μg/ml
# T1 construct: host or cells: HEK293
# Description: In vitro effects, human cells: HEK293 cells (human embryonic kidney cells) transfected with the human TLR2 and SEAP (secreted embryonic alkaline phosphatase) genes, were used to assay the function of Lipid 654 in vitro. The HEK cells, which naturally express variable levels of TLRs 1, 3, 5, 6, 7 and 9, were also transfected with the gene for CD14. CD14 is a co-receptor that enhances TLR2 responses. Additionally, TLR2 responses are most often mediated via another co-receptor which, in most cases, is either TLR1 or TLR6. The SEAP reporter gene is under the control of the IFN-β minimal promoter fused to five NF-κB and AP-1-binding sites. Stimulation with a TLR2 ligand activates NF-κB and AP-1 which induce the production of SEAP which is then quantitated as a colorimetric change in the presence of a detection medium.
# Lipid 654, solubilized in 50% DMSO in water, and two documented TLR2 agonists, MMP and lipotechoic acid (LTA), were incubated for 24 hours with the HEK cells in the presence or absence of antibodies to TLR2 and TLR6.
# (§1) Cell lines and assays: Human embryonic kidney cells (HEK293 cells), either nontransfected or transfected with human TLR2 or human TLR4 and stably expressing MD-2 and CD14, were purchased from InvivoGen. Cells were cultured in Dulbecco's modified Eagle's medium (DMEM; Gibco) containing 4.5 g/liter 1-glucose and 10% fetal bovine serum (FBS). The activities of specific TLR agonists were measured through a colorimetric assay for the secretory embryonic alkaline phosphatase (SEAP), a reporter gene that is linked to NF-κB activation. Measurement of SEAP activity using the Quanti-blue substrate (InvivoGen) after TLR agonist treatment was carried out in test medium (DMEM, 10% FBS) without antibiotics. NF-κB activation was expressed as a response ratio for each stimulus relative to SEAP activity in unstimulated (vehicle control) cells. For in vitro testing, all lipid preparations tested were solubilized in a 50% mixture of dimethyl sulfoxide (DMSO)-water (approximately 1.11% DMSO in the final culture medium).
# To determine the ability of P. gingivalis lipids to activate human cells via TLRs, the total lipids of P. gingivalis were fractionated by HPLC, and an aliquot of each fraction was dried and dissolved in 50% DMSO in water. Each HPLC fraction was then tested for cell activation by using HEK293 cells stably transfected with human TLR2, CD14, MD-2, and SEAP genes. In addition, the HEK293 cells naturally express variable levels of TLRs 1, 3, 5, 6, 7, and 9. The SEAP reporter gene is under the control of the beta interferon minimal promoter fused to five NF-κB and AP-1 binding sites. Stimulation with a TLR2 ligand activates NF-κB and AP-1, which induces the production of SEAP. SEAP is then quantitated via a colorimetric change in medium samples following the addition of a suitable enzyme substrate. Using this cell screen for human TLR2 engagement, each HPLC lipid fraction was screened for cell activation.
# human TLR4 = target: T2, human TLR4 (Homo sapiens, UniProt O00206+Q9Y6Y9); assay: HEK293 cells transfected with human TLR4, CD14 (MD-2) and SEAP reporter; format: cell-based; settings: 24 hours; for Activation of TLR4-expressing HEK293 cells: Example 23, lipids 0.69 μg/ml, LPS 1 μg/ml
# T2 construct: host or cells: HEK293
# Protocol: as §1
# To test whether lipid 654 and lipid 430 can function as ligands for TLR4, HEK293 cells transfected with the human TLR4, CD14, and MD-2 genes but not expressing TLR2 were utilized.
# CCL2 = assay: Serum CCL2 by ELISA after injection of lipid into mice; format: in vivo, mouse; settings: four hours
# Protocol: Lipid 654 was injected intraperitoneally (i.p.) into mice and three to four hours later serum was drawn and analyzed for levels of CCL2 via ELISA. Both female wild type (WT) C57BL/6 mice and female TLR2-deficient (TLR2−/−) mice were injected i.p. with either DMSO (vehicle control; VC) or Lipid 654. Three to four hours later, serum was drawn from these mice and analyzed for levels of CCL2.
# In vivo assays: Wild-type (WT) C57BL/6 mice or TLR2^−/− mice were injected intraperitoneally (i.p.) or intravenously (i.v.) with vehicle control or specific lipids. Four hours later, blood samples were obtained from mice, and the mice were euthanized. Serum was separated from the blood samples and frozen at −80° C. until analysis. Serum samples were analyzed for levels of CCL2 by ELISA (R&D, Minneapolis, Minn.).
# Lipid 654 was injected i.p. in 50% DMSO and lipid 430 was injected i.v. in phosphate-buffered saline (PBS). WT female C57BL/6 mice and TLR2^−/− female mice were injected with either vehicle, lipid 654, or lipid 430. Four hours later, serum was recovered from these mice and analyzed for levels of CCL2. […] The same was true for lipid 430.
# female SJL mice with EAE = assay: EAE by transfer of PLP-stimulated lymph node lymphocytes into SJL mice; format: in vivo, mouse; settings: 2 ng of Lipid 654 intravenously on day of cell transfer; 30 days; 5 mice; p=0.0006
# Protocol: Female SJL mice were injected intra-peritoneally with 30×10^6 4-day in-vitro-activated proteolipid protein (PLP)-stimulated lymph node lymphocytes and on the same day injected intravenously with either phosphate buffered saline (PBS) (vehicle control=“VC”) or 2 ng of Lipid 654. Mice were followed for 30 days for development of EAE and scored as 1=tail paralysis; 2=abnormal gait; 3=paralyzed hind legs; 4=paralyzed front and hind legs; 5=death. The results in FIG. 21 depict the daily mean for 5 mice injected with the VC and 5 mice injected with Lipid 654. […] Thus, MS patients can be treated directly with Lipid 654 or with commensal bacteria that produce increased amounts of Lipid 654.
# TLR4 = settings: Gomi et al., J Immunol. 2002; cited from earlier work
# TLR2 = target: T3, TLR2 (Mus musculus, UniProt Q9QUN7); assay: TLR2 engagement in mouse bone cells; format: cell-based
# T3 construct: endogenous in cells; host or cells: mouse bone cells
# Description: Phospholipase A2 enzymes are recovered in all tissues and levels of this enzyme are increased in association with virtually all chronic inflammatory diseases. In fact, phospholipase A2 inhibitors are being used to treat atherosclerosis, multiple sclerosis, and a variety of other conditions. Phospholipase A2 hydrolyzes glycerol phospholipids so that the ester linked fatty acid in the #2 carbon position of glycerol is released, but only for a glycerol ester linkage in the L enantiomeric configuration. Phospholipase A2 will not hydrolyze fatty acid linked in the D enantiomeric form of glycerol.
# Protocol for phospholipase A2 (PLA2): Aliquots of the enriched 654 (10 μg each) were dispensed into conical vials and the residual solvent was dried. Tris-buffered (10 mM) saline containing either no calcium/0.01% sodium EDTA, 2.5 mM calcium, or 10 mM calcium was added to specific vials (1.0 ml) and the solution was sonicated for 30 seconds. Specific vials were then supplemented with either porcine pancreatic phospholipase A2 (PP PLA2), honey bee venom PLA2, bovine liver nonspecific esterase (BLE), phospholipase C (PLC), lipoprotein lipase (LL), phospholipase D (PLD), or cobra venom factor (CVF). PP PLA2 or HBV PLA2 was added at a concentration of 96 or 120 U/ml, respectively. All other lipase preparations were used at this or a higher concentration. Controls were dissolved in the indicated Tris buffer but were not supplemented with enzyme. Each vial was stirred for 3 days after which the hydrolyzate was acidified with 100 ul of glacial acetic acid and extracted three times with chloroform. The pooled extracts were dried, reconstituted in HPLC solvent, and evaluated for recovery of Lipid 654 and Lipid 430 using MRM-MS as previously described. Two different isolates of Lipid 654, indicated as (A) and (B), were compared for hydrolysis by either porcine pancreatic or honey bee venom PLA2.
# T1 sequence (O60603 21-784): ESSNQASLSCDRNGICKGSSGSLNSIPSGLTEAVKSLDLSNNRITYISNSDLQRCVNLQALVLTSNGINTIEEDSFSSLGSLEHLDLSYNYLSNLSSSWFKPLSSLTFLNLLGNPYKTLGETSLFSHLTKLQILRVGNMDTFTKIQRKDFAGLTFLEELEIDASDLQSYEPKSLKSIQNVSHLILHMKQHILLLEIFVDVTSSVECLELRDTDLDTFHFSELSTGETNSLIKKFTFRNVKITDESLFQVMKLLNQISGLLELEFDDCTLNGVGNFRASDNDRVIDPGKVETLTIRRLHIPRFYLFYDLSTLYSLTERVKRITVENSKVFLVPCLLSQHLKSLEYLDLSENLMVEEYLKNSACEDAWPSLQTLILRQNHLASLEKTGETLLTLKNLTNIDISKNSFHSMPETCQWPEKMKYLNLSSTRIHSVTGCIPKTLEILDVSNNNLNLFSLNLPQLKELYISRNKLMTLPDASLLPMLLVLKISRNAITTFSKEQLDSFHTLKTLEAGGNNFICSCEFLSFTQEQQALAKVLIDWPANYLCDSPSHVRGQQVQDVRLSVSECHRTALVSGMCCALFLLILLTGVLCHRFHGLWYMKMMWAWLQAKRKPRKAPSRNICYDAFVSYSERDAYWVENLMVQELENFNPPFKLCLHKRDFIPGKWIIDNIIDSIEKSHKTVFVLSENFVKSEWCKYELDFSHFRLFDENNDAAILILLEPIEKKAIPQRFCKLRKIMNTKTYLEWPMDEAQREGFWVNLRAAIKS
# T1 sequence (Q9Y2C9 32-796 partner): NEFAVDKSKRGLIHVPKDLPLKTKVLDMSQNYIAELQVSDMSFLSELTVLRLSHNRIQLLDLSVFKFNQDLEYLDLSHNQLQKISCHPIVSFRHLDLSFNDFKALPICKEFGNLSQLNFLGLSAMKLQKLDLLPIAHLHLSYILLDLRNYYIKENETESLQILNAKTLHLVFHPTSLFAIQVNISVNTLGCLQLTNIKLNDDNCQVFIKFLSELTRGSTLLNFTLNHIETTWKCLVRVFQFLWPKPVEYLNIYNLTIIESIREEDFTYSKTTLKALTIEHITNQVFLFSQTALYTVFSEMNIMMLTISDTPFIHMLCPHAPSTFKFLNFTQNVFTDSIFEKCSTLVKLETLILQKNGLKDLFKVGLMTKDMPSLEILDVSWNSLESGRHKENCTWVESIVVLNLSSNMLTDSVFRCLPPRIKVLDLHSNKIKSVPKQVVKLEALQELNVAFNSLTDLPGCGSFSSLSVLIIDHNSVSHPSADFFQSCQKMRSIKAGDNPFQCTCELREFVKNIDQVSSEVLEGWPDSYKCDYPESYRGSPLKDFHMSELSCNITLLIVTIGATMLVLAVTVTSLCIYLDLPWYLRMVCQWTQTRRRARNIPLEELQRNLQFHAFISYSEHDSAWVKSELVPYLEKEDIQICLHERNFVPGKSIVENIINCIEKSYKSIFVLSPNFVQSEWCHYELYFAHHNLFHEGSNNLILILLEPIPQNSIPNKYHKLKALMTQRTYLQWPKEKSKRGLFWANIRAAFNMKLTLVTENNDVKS
# T2 sequence (O00206 24-839): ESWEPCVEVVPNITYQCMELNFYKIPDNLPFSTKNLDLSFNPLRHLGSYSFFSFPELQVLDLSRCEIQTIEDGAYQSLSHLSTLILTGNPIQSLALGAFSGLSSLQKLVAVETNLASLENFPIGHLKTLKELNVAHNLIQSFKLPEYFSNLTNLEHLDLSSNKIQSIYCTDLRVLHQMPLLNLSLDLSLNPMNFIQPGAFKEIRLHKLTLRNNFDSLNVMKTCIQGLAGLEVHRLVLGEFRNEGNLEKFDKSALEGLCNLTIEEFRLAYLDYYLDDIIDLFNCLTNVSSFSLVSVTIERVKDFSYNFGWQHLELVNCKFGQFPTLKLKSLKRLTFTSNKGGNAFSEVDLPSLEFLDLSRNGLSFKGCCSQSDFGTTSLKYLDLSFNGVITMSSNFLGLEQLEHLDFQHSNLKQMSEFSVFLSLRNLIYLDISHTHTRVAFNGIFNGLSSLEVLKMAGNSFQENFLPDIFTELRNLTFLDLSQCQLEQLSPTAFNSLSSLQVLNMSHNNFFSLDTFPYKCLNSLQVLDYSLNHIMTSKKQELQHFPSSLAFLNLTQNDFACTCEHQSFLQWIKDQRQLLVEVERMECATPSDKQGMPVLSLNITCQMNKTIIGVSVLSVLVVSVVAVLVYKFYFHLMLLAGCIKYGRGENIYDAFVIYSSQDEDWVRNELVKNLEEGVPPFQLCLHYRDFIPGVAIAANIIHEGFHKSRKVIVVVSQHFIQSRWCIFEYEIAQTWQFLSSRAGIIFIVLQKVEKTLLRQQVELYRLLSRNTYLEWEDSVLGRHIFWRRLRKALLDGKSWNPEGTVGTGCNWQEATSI
# T2 sequence (Q9Y6Y9 17-160 limits assumed): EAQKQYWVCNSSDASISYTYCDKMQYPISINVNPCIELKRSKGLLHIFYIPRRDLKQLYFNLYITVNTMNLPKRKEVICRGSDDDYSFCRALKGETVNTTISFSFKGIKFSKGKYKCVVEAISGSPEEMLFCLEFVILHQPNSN
# T3 sequence (Q9QUN7 25-784): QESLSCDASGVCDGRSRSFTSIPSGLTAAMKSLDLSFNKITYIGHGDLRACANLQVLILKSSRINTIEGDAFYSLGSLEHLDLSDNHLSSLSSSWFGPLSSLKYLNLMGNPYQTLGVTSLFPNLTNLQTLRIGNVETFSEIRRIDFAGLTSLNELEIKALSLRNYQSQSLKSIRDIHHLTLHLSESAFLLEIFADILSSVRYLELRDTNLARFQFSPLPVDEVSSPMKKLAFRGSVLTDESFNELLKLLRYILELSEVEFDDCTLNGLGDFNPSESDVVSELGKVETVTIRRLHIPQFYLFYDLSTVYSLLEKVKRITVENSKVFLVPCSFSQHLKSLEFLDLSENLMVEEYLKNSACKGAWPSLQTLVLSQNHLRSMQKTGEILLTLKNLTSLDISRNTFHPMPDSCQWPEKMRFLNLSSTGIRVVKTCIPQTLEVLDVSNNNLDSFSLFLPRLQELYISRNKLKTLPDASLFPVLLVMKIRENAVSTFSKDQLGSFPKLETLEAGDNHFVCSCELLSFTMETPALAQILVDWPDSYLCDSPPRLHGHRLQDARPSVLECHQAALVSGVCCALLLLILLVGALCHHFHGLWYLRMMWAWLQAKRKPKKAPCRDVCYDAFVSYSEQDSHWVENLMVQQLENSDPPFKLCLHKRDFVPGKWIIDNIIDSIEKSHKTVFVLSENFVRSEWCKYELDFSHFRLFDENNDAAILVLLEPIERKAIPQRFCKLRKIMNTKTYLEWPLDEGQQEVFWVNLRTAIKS
# T3 sequence (Q9EPW9 28-795 partner): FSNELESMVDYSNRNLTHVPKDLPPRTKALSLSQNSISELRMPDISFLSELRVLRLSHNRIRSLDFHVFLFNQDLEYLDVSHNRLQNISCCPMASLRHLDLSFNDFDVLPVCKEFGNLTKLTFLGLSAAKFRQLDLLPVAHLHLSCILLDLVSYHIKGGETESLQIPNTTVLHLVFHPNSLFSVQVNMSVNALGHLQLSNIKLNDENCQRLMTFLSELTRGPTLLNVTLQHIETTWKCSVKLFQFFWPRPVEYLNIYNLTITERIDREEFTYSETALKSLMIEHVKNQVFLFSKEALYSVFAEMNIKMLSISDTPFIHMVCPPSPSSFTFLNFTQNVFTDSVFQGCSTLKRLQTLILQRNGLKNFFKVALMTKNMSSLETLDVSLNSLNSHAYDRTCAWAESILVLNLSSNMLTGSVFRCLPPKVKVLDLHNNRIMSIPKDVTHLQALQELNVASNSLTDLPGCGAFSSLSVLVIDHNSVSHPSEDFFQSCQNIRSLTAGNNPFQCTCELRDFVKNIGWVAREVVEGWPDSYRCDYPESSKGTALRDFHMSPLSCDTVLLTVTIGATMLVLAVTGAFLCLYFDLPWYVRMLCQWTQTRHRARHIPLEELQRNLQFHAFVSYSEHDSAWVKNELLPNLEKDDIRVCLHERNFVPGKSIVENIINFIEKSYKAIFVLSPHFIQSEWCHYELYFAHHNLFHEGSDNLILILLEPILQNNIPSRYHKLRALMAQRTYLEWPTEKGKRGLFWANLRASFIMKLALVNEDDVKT
smiles,measurement,setting,value
CC(C)CCCCCCCCCCCC(=O)OC(CCCCCCCCCCCC(C)C)CC(=O)NCC(=O)N[C@@H](CO)C(=O)O (stereo partly shown) [Lipid 654],HEK cell activation versus DMSO vehicle (stimulated/nonstimulated ratio),human TLR2,promoted significant HEK cell activation over the control cells; also recorded: significantly elevated over the DMSO vehicle
same,Effect of anti-TLR2 and anti-TLR6 antibodies on NF-κB activation,"human TLR2; Example 17, 24 hours",inhibited by anti-TLR2 and anti-TLR6 antibodies
same,NF-κB activation (SEAP),"human TLR2; Example 17, 24 hours, no antibodies",demonstrated NF-κB-activation
same,Activation of human TLR2 in HEK cells,human TLR2; 24 hours,show the capacity to activate human TLR2 in HEK cells
same,Effect of pretreatment with anti-human TLR2 antibody on HEK-TLR2 cell activation,human TLR2; 24 hours,significantly inhibited by pretreatment with anti-human TLR2 antibody
same,Activation of TLR4-expressing cell line,"human TLR4; Example 17, LPS derived from P. gingivalis, two preparations of Lipid 654",showed no ability to activate the TLR4-expressing cell line
same,Activation of TLR4-expressing HEK293 cells,human TLR4,showed no capacity to activate the TLR4-expressing cell line
same,Serum levels of CCL2,"CCL2; TLR2−/− mice, lipid 654 1 μg i.p. in 50% DMSO",failed to do so
same,Serum levels of CCL2,"CCL2; WT mice, lipid 654 1 μg i.p. in 50% DMSO",induced a significant increase in serum levels of CCL2
same,Course of EAE compared to vehicle control,female SJL mice with EAE,significantly inhibited the course of EAE
same,Hydrolysis to Lipid 430 by other common lipase enzymes,"phospholipase A2 (PLA2); BLE, PLC, LL, PLD, CVF, 3 days",no other common lipase enzymes
same,Hydrolysis by phospholipase A2 enzymes,"phospholipase A2 (PLA2); porcine pancreas PLA2 96 U/ml or honey bee venom PLA2 120 U/ml, 3 days",is hydrolyzed by phospholipase A2 (PLA2) enzymes
same,Portion not hydrolyzed by PLA2,phospholipase A2 (PLA2); repeated treatment with PLA2,Approximately half
CC(C)CCCCCCCCCCCC(=O)O[C@H](CCCCCCCCCCCC(C)C)CC(=O)NCC(=O)NC(CO)C(=O)O (stereo partly shown) [Flavolipin],Innate immune activation via TLR4,TLR4,acting as an agonist for TLR4
CC(C)CCCCCCCCCCCC(O)CC(=O)NCC(=O)N[C@@H](CO)C(=O)O (stereo partly shown) [Lipid 430],HEK cell activation versus DMSO vehicle (stimulated/nonstimulated ratio),human TLR2,promoted significant HEK cell activation over the control cells; also recorded: significantly elevated over the DMSO vehicle
same,Activation of human TLR2 in HEK cells,human TLR2; 24 hours,activates HEK cells through TLR2; also recorded: show the capacity to activate human TLR2 in HEK cells
same,Effect of pretreatment with anti-human TLR2 antibody on HEK-TLR2 cell activation,human TLR2; 24 hours,significantly inhibited by pretreatment with anti-human TLR2 antibody
same,Activation of TLR4-expressing HEK293 cells,human TLR4,showed no capacity to activate the TLR4-expressing cell line
same,Serum levels of CCL2,"CCL2; TLR2−/− mice, lipid 430 2.5 μg i.v. in PBS",failed to do so
same,Serum levels of CCL2,"CCL2; WT mice, lipid 430 2.5 μg i.v. in PBS",induced a significant increase in serum levels of CCL2
same,Potency in engaging TLR2 relative to the Lipid 654 preparation,TLR2,at least ten fold more potent
same,TLR2 agonism,TLR2; Lipid 430 released with PLA2 treatment of Lipid 654,strong TLR2 agonist
